Data from the NIST ThermoML archive (doi:10.1021/je060203o).

Settings: Liquid; for mass density: Vibrating tube method; for speed of sound: Pulse-echo method

CCCCCn1cc[n+](C)c1.O=S(=O)([N-]S(=O)(=O)C(F)(F)F)C(F)(F)F
Settings | mass density [kg/m3] | speed of sound [m/s]
313.15 K, 25860 kPa | 1409.15 | –
313.15 K, 31480 kPa | 1412.95 | –
313.15 K, 37770 kPa | 1417.13 | –
313.15 K, 44170 kPa | 1421.26 | –
313.15 K, 50750 kPa | 1425.48 | –
313.15 K, 59590 kPa | 1431.06 | –
318.15 K, 100 kPa | 1385.75 | –
318.15 K, 500 kPa | – | 1187.3
318.15 K, 1830 kPa | 1387.09 | –
318.15 K, 3500 kPa | – | 1198.6
318.15 K, 7000 kPa | – | 1211.5
318.15 K, 10000 kPa | – | 1222.4
318.15 K, 10020 kPa | 1393.29 | –
318.15 K, 13500 kPa | – | 1234.8
318.15 K, 14980 kPa | 1396.9 | –
318.15 K, 16990 kPa | – | 1246.9
318.15 K, 19750 kPa | 1400.31 | –
318.15 K, 20000 kPa | – | 1257
318.15 K, 25860 kPa | 1404.59 | –
318.15 K, 30000 kPa | – | 1290
318.15 K, 31480 kPa | 1408.43 | –
318.15 K, 37770 kPa | 1412.65 | –
318.15 K, 40000 kPa | – | 1321
318.15 K, 44170 kPa | 1416.86 | –
318.15 K, 50000 kPa | – | 1350.2
318.15 K, 50750 kPa | 1421.15 | –
318.15 K, 59590 kPa | 1426.81 | –
318.15 K, 60000 kPa | – | 1378.2
318.15 K, 70000 kPa | – | 1404.9
318.15 K, 80000 kPa | – | 1430.7
318.15 K, 90000 kPa | – | 1455.5
318.15 K, 100000 kPa | – | 1479.5
318.15 K, 112500 kPa | – | 1508
318.15 K, 125000 kPa | – | 1535.9
318.15 K, 137510 kPa | – | 1562.6
318.15 K, 150000 kPa | – | 1587.4
323.15 K, 100 kPa | 1381.45 | –
323.15 K, 1830 kPa | 1382.69 | –
323.15 K, 10020 kPa | 1388.89 | –
323.15 K, 14980 kPa | 1392.55 | –
323.15 K, 19750 kPa | 1395.96 | –
323.15 K, 25860 kPa | 1400.22 | –
323.15 K, 31480 kPa | 1404.06 | –
323.15 K, 37770 kPa | 1408.3 | –
323.15 K, 44170 kPa | 1412.52 | –
323.15 K, 50750 kPa | 1416.77 | –
323.15 K, 59590 kPa | 1422.52 | –
325.15 K, 100 kPa | 1379.56 | –
325.15 K, 1830 kPa | 1380.89 | –
325.15 K, 10020 kPa | 1387.23 | –
325.15 K, 14980 kPa | 1390.89 | –
325.15 K, 19750 kPa | 1394.39 | –
325.15 K, 25860 kPa | 1398.72 | –
325.15 K, 31480 kPa | 1402.63 | –
325.15 K, 37770 kPa | 1406.92 | –
325.15 K, 44170 kPa | 1411.19 | –
325.15 K, 50750 kPa | 1415.51 | –
325.15 K, 59590 kPa | 1421.18 | –
327.15 K, 100 kPa | 1377.56 | –
327.15 K, 1830 kPa | 1378.86 | –
327.15 K, 10020 kPa | 1385.24 | –
327.15 K, 14980 kPa | 1388.96 | –
327.15 K, 19750 kPa | 1392.45 | –
327.15 K, 25860 kPa | 1396.84 | –
327.15 K, 31480 kPa | 1400.77 | –
327.15 K, 37770 kPa | 1405.12 | –
327.15 K, 44170 kPa | 1409.39 | –
327.15 K, 50750 kPa | 1413.81 | –
327.15 K, 59590 kPa | 1419.56 | –
328.15 K, 500 kPa | – | 1165.8
328.15 K, 3500 kPa | – | 1177.4
328.15 K, 7000 kPa | – | 1190.6
328.15 K, 10000 kPa | – | 1201.8
328.15 K, 13500 kPa | – | 1214.2
328.15 K, 16990 kPa | – | 1226.6
328.15 K, 20000 kPa | – | 1236.9
328.15 K, 30000 kPa | – | 1270.5
328.15 K, 40000 kPa | – | 1301.9
328.15 K, 50000 kPa | – | 1331.7
328.15 K, 60000 kPa | – | 1360.1
328.15 K, 70000 kPa | – | 1387.2
328.15 K, 80000 kPa | – | 1413.4
328.15 K, 90000 kPa | – | 1438.4
328.15 K, 100000 kPa | – | 1462.6
328.15 K, 112500 kPa | – | 1491.6
328.15 K, 125000 kPa | – | 1519.6
328.15 K, 137510 kPa | – | 1546.6
328.15 K, 150000 kPa | – | 1571.5
329.15 K, 100 kPa | 1375.46 | –
329.15 K, 1830 kPa | 1376.78 | –
329.15 K, 10020 kPa | 1383.2 | –
329.15 K, 14980 kPa | 1386.93 | –
329.15 K, 19750 kPa | 1390.47 | –
329.15 K, 25860 kPa | 1394.89 | –
329.15 K, 31480 kPa | 1398.85 | –
329.15 K, 37770 kPa | 1403.2 | –
329.15 K, 44170 kPa | 1407.56 | –
329.15 K, 50750 kPa | 1411.94 | –
329.15 K, 59590 kPa | 1417.73 | –
331.15 K, 100 kPa | 1373.32 | –
331.15 K, 1830 kPa | 1374.64 | –
331.15 K, 10020 kPa | 1381.17 | –
331.15 K, 14980 kPa | 1384.96 | –
331.15 K, 19750 kPa | 1388.53 | –
331.15 K, 25860 kPa | 1392.98 | –
331.15 K, 31480 kPa | 1396.98 | –
331.15 K, 37770 kPa | 1401.34 | –
331.15 K, 44170 kPa | 1405.67 | –
331.15 K, 50750 kPa | 1410.08 | –
331.15 K, 59590 kPa | 1415.87 | –
333.15 K, 100 kPa | 1371 | –
333.15 K, 1830 kPa | 1372.46 | –
333.15 K, 10020 kPa | 1379.05 | –
333.15 K, 14980 kPa | 1382.89 | –
333.15 K, 19750 kPa | 1386.48 | –
333.15 K, 25860 kPa | 1390.95 | –
333.15 K, 31480 kPa | 1395.01 | –
333.15 K, 37770 kPa | 1399.42 | –
333.15 K, 44170 kPa | 1403.81 | –
333.15 K, 50750 kPa | 1408.2 | –
333.15 K, 59590 kPa | 1414.01 | –
338.15 K, 500 kPa | – | 1144.8
338.15 K, 3500 kPa | – | 1156.5
338.15 K, 7000 kPa | – | 1170
338.15 K, 10000 kPa | – | 1181.4
338.15 K, 13500 kPa | – | 1194.3
338.15 K, 16990 kPa | – | 1206.7
338.15 K, 20000 kPa | – | 1217.2
338.15 K, 30000 kPa | – | 1251.3
338.15 K, 40000 kPa | – | 1283.3
338.15 K, 50000 kPa | – | 1313.6
338.15 K, 60000 kPa | – | 1342.4
338.15 K, 70000 kPa | – | 1369.8
338.15 K, 80000 kPa | – | 1396.3
338.15 K, 90000 kPa | – | 1421.6
338.15 K, 100000 kPa | – | 1446.3
338.15 K, 112500 kPa | – | 1475.3
338.15 K, 125000 kPa | – | 1503.7
338.15 K, 137510 kPa | – | 1530.9
338.15 K, 150000 kPa | – | 1556.2
